Experimental data reported in US8119666B2, “1,2,5-thiazolidine derivatives useful for treating conditions mediated by protein tyrosine phosphatases (PTPase)” (Novartis AG, priority 2005, dated 2012).

Molecular target: T1, human PTP-1B (Homo sapiens, UniProt P18031)
T1 construct: recombinant human PTP-1B[1-298] or PTP-1B[1-322]
T1 sequence (P18031 1-298 limits assumed): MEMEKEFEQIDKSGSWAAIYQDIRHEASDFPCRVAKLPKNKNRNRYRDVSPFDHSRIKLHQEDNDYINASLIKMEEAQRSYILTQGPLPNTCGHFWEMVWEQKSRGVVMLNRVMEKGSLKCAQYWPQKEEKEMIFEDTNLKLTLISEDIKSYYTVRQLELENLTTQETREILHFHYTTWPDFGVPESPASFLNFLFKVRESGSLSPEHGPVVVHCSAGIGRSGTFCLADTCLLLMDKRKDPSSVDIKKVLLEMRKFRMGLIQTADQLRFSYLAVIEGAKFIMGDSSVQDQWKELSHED
Assay: PTP-1B inhibitory activity in vitro (IC50)
Type: biochemical
Details: inhibitory activity to human PTP-1B; which of the described assay formats was used is not stated
Protocol: Assessment of human PTP-1B (hPTP-1B) activity in the presence of various agents is determined by measuring the amount of inorganic phosphate released from a phosphopeptide substrate using a 96-well microtiter plate format. The assay (100 μL) is performed in an assay buffer comprised of 50 mM TRIS (pH 7.5), 50 mM NaCl, 3 mM DTT at ambient temperature. The assay is typically performed in the presence of 0.4% dimethyl sulfoxide (DMSO). However, concentrations as high as 10% are used with certain poorly soluble compounds. […] Inorganic phosphate, a product of the enzyme reaction, is quantitiated after 15 min as the green color resulting from complexing with the Malichite reagent and is determined as an A620 using a Molecular Devices (Sunnyvale, Calif.) SpectraMAX Plus spectrophotometer. […] Activity is defined as the net change in absorbance resulting from the activity of the uninhibited hPTP-1B[1-411] minus that of a tube with acid-inactivated hPTP-1B[1-411].
Alternatively, the assessment of human PTP-1B activity in the presence of various agents may be determined by measuring the hydrolysis products of known competing substrates. For example, cleavage of substrate para-nitrophenylphosphate (pNPP) results in the release of the yellow-colored para-nitrophenol (pNP) which can be monitored in real time using a spectrophotometer. […]

IC50 [nM] | SMILES
126 | CS(=O)(=O)Oc1c(Cl)cccc1Cc1ccc(N2CC(=O)NS2(=O)=O)c(O)c1 [Example No. 52-1, Methanesulfonic acid 2-chloro-6-[3-hydroxy-4-(1,1,4-trioxo-1,2,5-thiadiazolidin-2-yl)-benzyl]-phenyl ester]
133 | COc1ccc(Cc2ccc(N3CC(=O)NS3(=O)=O)c(O)c2)c(OS(C)(=O)=O)c1 [Example No. 52-3, Methanesulfonic acid 2-[3-hydroxy-4-(1,1,4-trioxo-1,2,5-thiadiazolidin-2-yl)-benzyl]-5-methoxyphenyl ester]
